Results from patent US20250215371A1, “MOTOR UNIT CHIP, MANUFACTURING METHOD THEREOF AND METHOD OF DETECTING PATHOLOGICAL EVENT USING THE SAME” (Taipei Medical University, priority 2023, published 2025).

Key:
Format in all cases: cell-based, mouse
[1] = tested on: MNs; assay: Calcium imaging (fura-2) of motor neurons in the motor unit chip; conditions: n=8 fields
Method: (§1) Tri-cultures on 12.5 mm glass coverslips were briefly washed in HEPES Hanks' Buffer Solution (HHBS) (5.6 mM glucose, 20 mM Hepes, 3 mM NaHCO3, 0.3 mM Na2HPO4, 0.4 mM KH2PO4, 137 mM NaCl, 5.0 mM KCl, […], 4.1 mM MgSO4, 1.26 mM CaCl2, pH=7.4) and then the coverslip was incubated with fura-2 AM in 0.04% pluronic acid dissolved in HHBS to a final concentration of 20 μM for 30 mins at 37° C. After loading indicator, coverslips were washed in fresh HBSS for 10 mins at 37° C. and then transferred to an imaging chamber for microscopy experiments. Fura-2 imaging was performed on an Olympus IX71 microscope using a 20× objective lens. […] Intracellular Ca^2+ concentration ([Ca^2+]i) was monitored by sequential excitation (1 Hz) of fura-2 at 340 and 380 nm. […]
(§2) Images were processed using MetaFluor Analyst to draw regions of interest (ROIs), subtract background, and generate 340/380 ratios. […] Criterion “1” was empirically determined to exclude cells with poor signal to noise ratio. […]
(§3) Data were analyzed using the Student's t test. […] For statistical analyses of calcium image, MN and myotube data were assessed for normality using the D′Agostino-Pearson normality test. […] Percent responders was calculated using number of responders/total MNs or myotubes in the field.

[2] = tested on: Schwann cells; assay: Calcium imaging (fura-2) of Schwann cells in the tri-culture; conditions: 50 mM extracellular K^+ or 10 μM ACh
Method: After loading indicator, coverslips were washed in fresh HBSS for 10 mins at 37° C. and then transferred to an imaging chamber for microscopy experiments. Fura-2 imaging was performed on an Olympus IX71 microscope using a 20× objective lens. Excitation wavelength was selected with a galvanometer-driven monochromator (8 nm slit width) coupled to a 75 W xenon arc lamp (Optoscan; Cairn Research). […] A single image was acquired at 610 nm to identify mApple expressing MNs in the field. Fluorescent images were captured using a cooled charge-coupled device camera (Cascade 512B; Roper Scientific) and Metafluor acquisition software (Molecular Devices). All fura-2 experiments were performed in HBSS buffer at room temperature. To depolarize MNs the extracellular K^+ concentration was increased to 50 mM with K^+ exchanged reciprocally for Na+in HHBS. For myotube stimulation 10 μM ACh was applied by bath perfusion. A 60 s baseline in HHBS was acquired before stimulation of each coverslip. High K^+ was applied for 30 s and ACh for 1 min. After stimulus application, a washout of 60 s was performed. Background images were acquired after each experiment; the coverslip was wiped clean, then 20 frames were acquired using the same parameters as above. Images were processed using MetaFluor Analyst to draw regions of interest (ROIs), subtract background, and generate 340/380 ratios. […]

[3] = tested on: myotubes; assay: Calcium imaging (fura-2) of myotubes in the motor unit chip; conditions: n=8 fields
Method: as §1, §2, §3

SMILES	MNs responded to 50 mM K^+ stimulation (percent responders) ([1]; 50 mM K^+ for 30 s, 43/62 cells) [%]	depolarization-evoked peak 340/380 ratio ([Ca^2+]i) ([1]; 50 mM K^+, basal 340/380 ratio 0.62±0.06, mean ±SD)	changes in [Ca^2+]i in Schwann cells [2]	myotubes responded to ACh stimulation (percent responders) ([3]; 10 μM ACh for 60 s, 24/27 cells) [%]	ACh-evoked peak 340/380 ratio ([Ca^2+]i) ([3]; 10 μM ACh, basal 340/380 ratio 0.68±0.12, mean ±SD)
[Cl-].[K+] [K^+]	70	1.83±1.41	did not show any changes in [Ca^2+]i	–	–
CC(=O)OCC[N+](C)(C)C [ACh, acetylcholine]	–	–	–	89	3.62±2.73
